For 25 compounds, IC50 and PGE2 up-regulation rate results are on record in patent US20250250283A1, “COMPOUND CAPABLE OF REGULATING AND CONTROLLING ACTIVITY OF 15-PGDH, AND PREPARATION METHOD THEREFOR” (SCINNOHUB PHARMACEUTICAL CO., LTD., priority 2022, published 2025).

One test addresses 15-PGDH enzyme (Homo sapiens (Human), UniProt P15428). Nature of the test: Detection of activity of 15-PGDH (enzyme inhibition, NADH fluorescence, PGF2α/β-NAD substrates). Format: biochemical. The protocol:
Test Example 1: Detection of Activity of 15-PGDH Kinase
• a. A solution of pH 7.5 containing 50 mM Tris-HCl, 0.01% Tween 20 was prepared with ultrapure water as a reaction buffer; • b. A 10 mM mother liquor of the compound to be tested was prepared with DMSO, and then the reaction buffer was used to dilute the mother liquor of the compound to be tested to obtain solution 1 of the compound to be tested at a concentration of 40,000 nM, and then the solution 1 of the compound to be tested was serially diluted into solutions 2-9 (or 2-12) of the compound to be tested at 9 (or 11) concentrations with a gradient difference of three-fold. 5 μL of each concentration of solutions of the compound to be tested was respectively taken and added into a 384-well plate as test wells; • c. 5 μL of the reaction buffer was added to the blank wells of the 384-well plate as positive control and blank control wells, respectively; • d. The reaction buffer was used to prepare a 15-PGDH protein solution at a concentration of 5 ng/μL, 5 μL of the 15-PGDH protein solution was taken and added to the test wells and positive control wells, and meanwhile 5 μL of the reaction buffer was added to the blank control wells, then the plate was centrifuged at 2000 rpm for 30 seconds; • e. The reaction buffer was used to prepare 5 mM β-NAD and 2 mM PGF2α, respectively, which were mixed at 1:1 by volume to obtain a substrate mixture, 10 μL of the substrate mixture was taken and added to the test wells, positive control wells and blank control wells to start the reaction; • f. The fluorescence signal value (Ex/Em=340/450) of each well was detected continuously by using a multifunctional microplate reader.
• a) Continuous fluorescence signal values were analyzed by using the “kinetic calculations-slope calculation method” in the PHERAstar Data analysis software to obtain the slope of each test well; • b) The inhibition rate % was calculated by using the following formula:
[formula] • c) Calculation of IC50 and plotting of inhibition rate-dose curves: IC50 values were calculated by fitting compound concentrations and corresponding inhibition rates with a nonlinear regression (dose response-variable slope) via using GraphPad Prism 6.0. The formula was shown below:
Y=Bottom+(Top−Bottom)/(1+10^((Log IC50−X)*HillSlope)), wherein X is a log value of a concentration of the compound, and Y is inhibition rate %.

The subject of a further test is A549 cells. In words: Assay of intracellular PGE2 up-regulatory activity in IL-1β-stimulated A549 cells. Format: cell-based. The settings on record: IL-1β induced, 8 h. The procedure:
Test Example 2: Assay of Intracellular PGE2 Up-Regulatory Activity
a) A549 cells were inoculated in the 24-well plate, and after cell adhesion, IL-1β was added thereto for 16 h of stimulation to induce COX2 expression and PGE2 production. b) A solution of the compound to be tested was prepared with the culture medium and gradiently diluted to 3 concentrations of 10 nM, 300 nM and 10,000 nM or 7 concentrations of 0.64 nM, 3.2 nM, 16 nM, 80 nM, 400 nM, 2000 nM and 10,000 nM, and meanwhile the positive control group (only IL-1β was added to the cells for induction) and negative control group (only cells were added in the wells without any treatment) were set up. The cell supernatants were collected after 8 h of action, in which the positive control group was induced by IL-1β without treatment of the compounds, and the negative control group was neither stimulated by IL-1β, nor treated with the compounds. c) The PGE2 content of the samples was determined by Prostaglandin E2 Kit, and the fluorescence signal was detected by a multifunctional microplate reader (Ex/Em=337/620, 337/665).
a) A standard curve was plotted with the PGE2 standard in the Prostaglandin E2 Kit, and the PGE2 concentration was calculated by substituting with the fluorescence signal of the sample. b) The PGE2 up-regulation rate % was calculated by using the following formula: […]

The mark [1] stands for this setting: inhibitory activity against 15-PGDH enzyme, class symbols, read-out: IC50.

Read-outs that look alike come from different tables or passages of the source. Some results are limits rather than exact numbers.

15-PGDH enzyme, sequence (P15428 whole entry): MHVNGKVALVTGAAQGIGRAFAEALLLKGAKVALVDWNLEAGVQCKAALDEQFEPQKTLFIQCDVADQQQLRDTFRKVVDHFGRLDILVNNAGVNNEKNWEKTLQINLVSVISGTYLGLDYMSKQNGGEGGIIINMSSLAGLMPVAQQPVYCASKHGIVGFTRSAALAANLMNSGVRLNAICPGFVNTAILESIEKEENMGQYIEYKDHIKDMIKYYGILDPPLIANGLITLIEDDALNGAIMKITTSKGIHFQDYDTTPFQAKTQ

In general, IC50 refers to the concentration that gives 50% inhibition. Consider `CN1Cc2cc(-c3nc4sc(C(=O)N5CCCCC5)c(N)c4c4nccn34)ccc2C1=O` [Example 24, 5-(9-amino-8-(piperidine-1-carbonyl)imidazo[1,2-c]thieno[3,2-e]pyrimidin-5-yl)-2-methylisoindol-1-one], for which the half-maximal inhibitory concentration (IC50) on 15-PGDH enzyme (setting [1]) was < 3 nM. Further, the results for the PGE2 up-regulation rate in the test with A549 cells (compound 3.2 nM), in the test with A549 cells (compound 16 nM) and in the test on A549 cells (compound 80 nM) were 568%, 461% and 473%, respectively. Take `Nc1c(C(=O)N2CCCC2)sc2nc(-c3ccccc3)n3ccnc3c12` [Example 17]: the concentration for half-maximal inhibition (IC50) at 15-PGDH enzyme (setting [1]) fell in the range of 25 to 50 nM. Consider `Nc1c(C(=O)N2CCC(F)CC2)sc2nc(-c3ccccc3)n3cc(C(F)(F)F)nc3c12` [Example 2, (9-amino-5-phenyl-2-(trifluoromethyl)imidazo[1,2-c]thieno[3,2-e]pyrimidin-8-yl)(4-fluoropiperidin-1-yl)methanone], for which the IC50 at 15-PGDH enzyme (setting [1]) is 3 to 10 nM. `Nc1c(C(=O)N2CCCCC2)sc2nc(-c3ccccn3)n3ccnc3c12` [Example 10]: the IC50 on 15-PGDH enzyme (setting [1]) lay in the range of 3 to 10 nM.

In the case of `Nc1c(C(=O)N2CCC(F)CC2)sc2c1C1=NCCN1C(c1ccccc1)=N2` [Compound 8, (9-amino-5-phenyl-2,3-dihydroimidazo[1,2-c]thieno[3,2-e]pyrimidin-8-yl)(4-fluoropiperidin-1-yl)methanone], at 15-PGDH enzyme (setting [1]), the IC50 was 10 to 25 nM. `N#Cc1c(C(=O)N2CCCCC2)sc2nc(-c3ccccc3)n3ccnc3c12` [Example 22]: at 15-PGDH enzyme (setting [1]), the IC50 lay within 3 to 10 nM.

On to `Cc1cn2c(-c3ccccc3)nc3sc(C(=O)N4CCC(F)CC4)c(N)c3c2n1` [Example 9], for which the IC50 on 15-PGDH enzyme (setting [1]) was 3 to 10 nM. The PGE2 up-regulation rate in the test on A549 cells (compound 400 nM) came to 333%.

In the case of `O=C(c1sc2nc(-c3ccccc3)n3ccnc3c2c1C1CC1)N1CCCCC1` [Example 14], the IC50 at 15-PGDH enzyme (setting [1]) lay within 3 to 10 nM. With `O=C(c1sc2nc(-c3ccccc3)n3ccnc3c2c1I)N1CCCCC1` [Example 4, (9-iodo-5-phenylimidazo[1,2-c]thieno[3,2-e]pyrimidin-8-yl)(piperidin-1-yl)methanone], the IC50 at 15-PGDH enzyme (setting [1]) was < 3 nM. As for `Nc1c(C(=O)N2CCCCC2)sc2nc(-c3cnccn3)n3ccnc3c12` [Example 21], on 15-PGDH enzyme (setting [1]), the IC50 is < 3 nM. Further, in the test on A549 cells (compound 400 nM), the PGE2 up-regulation rate was 321%. For the compound `Nc1c(C(=O)N2CCCCC2)sc2nc(-c3ccccc3)n3cnnc3c12` [Example 5, (9-amino-5-phenylthieno[3,2-e][1,2,4]triazolo[4,3-c]pyrimidin-8-yl)(piperidin-1-yl)methanone], on 15-PGDH enzyme (setting [1]), the IC50 lay in the range of 3 to 10 nM. On the same count and under the same terms, next, `Cc1c(C(=O)N2CCCCC2)sc2nc(-c3ccccc3)n3ccnc3c12` [Example 13]: 3 to 10 nM; `COc1c(C(=O)N2CCCCC2)sc2nc(-c3ccccc3)n3ccnc3c12` [Example 6, (9-methoxy-5-phenylimidazo[1,2-c]thieno[3,2-e]pyrimidin-8-yl)(piperidin-1-yl)methanone]: 10 to 25 nM. Turning to `Nc1c(C(=O)N2CCCCC2)sc2nc(-c3nccs3)n3ccnc3c12` [Example 19], the IC50 on 15-PGDH enzyme (setting [1]) lay in the range of 10 to 25 nM. Still for that read-out and setting: next, `CCN(CC)C(=O)c1sc2nc(-c3ccccc3)n3ccnc3c2c1N` [Example 16]: 25 to 50 nM. As to `Nc1c(C(=O)N2CCC(F)CC2)sc2nc(-c3ccccc3)n3ccnc3c12` [Example 1, (9-amino-5-phenylimidazo[1,2-c]thieno[3,2-e]pyrimidin-8-yl)(4-fluoropiperidin-1-yl)methanone], the IC50 at 15-PGDH enzyme (setting [1]) was < 3 nM; at 15-PGDH enzyme (stated in text as bounds, read-out: IC50 value of the inhibitory activity against 15-PGDH enzyme) it was < 1.5 nM. For `Nc1c(C(=O)N2CCCCC2)sc2nc(-c3ccncc3)n3ccnc3c12` [Example 3, (9-amino-5-(pyridin-4-yl)imidazo[1,2-c]thieno[3,2-e]pyrimidin-8-yl)(piperidin-1-yl)methanone], at 15-PGDH enzyme (setting [1]), the IC50 was < 3 nM. Take `Nc1c(C(=O)N2CCCCC2)sc2nc(-c3ccc4ccccc4n3)n3ccnc3c12` [Example 20]: the IC50 on 15-PGDH enzyme (setting [1]) is 10 to 25 nM.

Take `Nc1c(C(=O)N2CCCCC2)sc2nc(-c3ccccc3)n3ccnc3c12` [Example 7]: the IC50 at 15-PGDH enzyme (setting [1]) is < 3 nM. On to `Nc1c(C(=O)N2CCCCC2)sc2nc(-c3cccnc3)n3ccnc3c12` [Example 15], for which the IC50 on 15-PGDH enzyme (setting [1]) was < 3 nM. Turning to `Nc1c(C(=O)N2CCC(F)(F)CC2)sc2nc(-c3ccccc3)n3ccnc3c12` [Example 8], the half-maximal inhibitory concentration (IC50) on 15-PGDH enzyme (setting [1]) lay in the range of 3 to 10 nM. Also, the PGE2 up-regulation rate amounted to 483% in the test on A549 cells (compound 16 nM), 520% in the test with A549 cells (compound 80 nM) and 770% in the test with A549 cells (compound 400 nM). Take `Cn1ccc2cc(-c3nc4sc(C(=O)N5CCCCC5)c(N)c4c4nccn34)ccc2c1=O` [Example 25, 6-(9-amino-8-(piperidin-1-carbonyl)imidazo[1,2-c]thieno[3,2-e]pyrimidin-5-yl)-2-methylisoquinolin-1(2H)-one]: on 15-PGDH enzyme (setting [1]), the IC50 is < 3 nM. For the same compound, the PGE2 up-regulation rate is on record as 513% with A549 cells (compound 3.2 nM), 782% with A549 cells (compound 16 nM) and 741% in the test on A549 cells (compound 80 nM). For the compound `O=C(c1cc2c(nc(-c3ccccc3)n3ccnc23)s1)N1CCCCC1` [Example 18], the IC50 on 15-PGDH enzyme (setting [1]) lay in the range of 10 to 25 nM. As to `O=C(c1sc2nc(-c3ccccc3)n3ccnc3c2c1C(F)(F)F)N1CCCCC1` [Example 12], on 15-PGDH enzyme (setting [1]), the half-maximal inhibitory concentration (IC50) was in the range of 3 to 10 nM. Regarding `CC(C)c1c(C(=O)N2CCCCC2)sc2nc(-c3ccccc3)n3ccnc3c12` [Example 23, (9-isopropyl-5-phenylimidazo[1,2-c]thieno[3,2-e]pyrimidin-8-yl)(piperidin-1-yl)methanone], at 15-PGDH enzyme (setting [1]), the IC50 is 3 to 10 nM.
